Test results as given in ChEMBL document CHEMBL1132706 (J Med Chem, 1999).
Each block holds one molecule with its values, some of them ahead of it.

Tests used:
[1] = molecular target: T1, Human immunodeficiency virus type 1 integrase (Human immunodeficiency virus 1, UniProt Q7ZJM1)
Description: Inhibition of HIV-1 integrase by radiolabeled oligonucleotide-based assay integration

[2] = molecular target: T1, Human immunodeficiency virus type 1 integrase; remark: listed apart in the source
Description: Compound was evaluated for the inhibitory concentration against HIV-1 integrase by radiolabeled oligonucleotide-based assay 3''-processing

CEM-SS [3] = test: Compound was evaluated for the cytoprotection of CEM-SS cells by XTT cytoprotection assay through the NCI AIDS Screen; Not reached due to cytotoxicity; format: functional, cell-based, Homo sapiens
CEM-SS [4] = test: Compound was evaluated for the cytoprotection by XTT cytoprotection assay through the NCI AIDS Screen; format: functional, cell-based; details: Homo sapiens
CEM-SS [5] = test: Compound was evaluated for the effect of Order of Addition on Cytoprotection against HIV1-RF at dilution 100, Add at infection; format: functional, Homo sapiens
CEM-SS [6] = test: Compound was evaluated for the effect of Order of Addition on Cytoprotection against HIV1-RF at dilution 100, Pretreat and add 1 uM; format: functional, Homo sapiens
CEM-SS [7] = test: Compound was evaluated for the effect of Order of Addition on Cytoprotection against HIV1-RF at dilution 100, Pretreat and add 10 uM; format: functional, Homo sapiens
CEM-SS [8] = test: Compound was evaluated for the effect of Order of Addition on Cytoprotection against HIV1-RF at dilution 100, Pretreat with 100 uM; format: functional, Homo sapiens
CEM-SS [9] = test: Compound was evaluated for the effect of Order of Addition on Cytoprotection against HIV1-RF at dilution 1000, Add at infection; format: functional, Homo sapiens
CEM-SS [10] = test: Compound was evaluated for the effect of Order of Addition on Cytoprotection against HIV1-RF at dilution 1000, Pretreat and add 1 uM; format: functional, Homo sapiens
CEM-SS [11] = test: Compound was evaluated for the effect of Order of Addition on Cytoprotection against HIV1-RF at dilution 1000, Pretreat and add 10 uM; format: functional, Homo sapiens
CEM-SS [12] = test: Compound was evaluated for the effect of Order of Addition on Cytoprotection against HIV1-RF at dilution 1000, Pretreat with 100 uM; format: functional, Homo sapiens
CEM-SS [13] = test: Compound was evaluated for the effect of Order of Addition on Cytoprotection against HIV1-RF at dilution 333, Add at infection; format: functional, Homo sapiens
CEM-SS [14] = test: Compound was evaluated for the effect of Order of Addition on Cytoprotection against HIV1-RF at dilution 333, Pretreat and add 10 uM; format: functional, Homo sapiens
CEM-SS [15] = test: Compound was evaluated for the effect of Order of Addition on Cytoprotection against HIV1-RF at dilution 333,Pretreat and add 1 uM; format: functional, Homo sapiens
CEM-SS [16] = test: Concentration of compound required to protect 50% of CEM-SS cells against retroviral cytopathic effects of HIV-RF on 3rd day at dil 1:100; format: functional, cell-based; details: Homo sapiens
CEM-SS [17] = test: Concentration of compound required to protect 50% of CEM-SS cells against retroviral cytopathic effects of HIV-RF on 3rd day at dil 1:200; format: functional, cell-based; details: Homo sapiens
CEM-SS [18] = test: Concentration of compound required to protect 50% of CEM-SS cells against retroviral cytopathic effects of HIV-RF on 3rd day at dil 1:50; format: functional, cell-based; details: Homo sapiens
CEM-SS [19] = test: Concentration of compound required to protect 50% of CEM-SS cells against retroviral cytopathic effects of HIV-RF on 6th day at dil 1:100; format: functional, cell-based; details: Homo sapiens
CEM-SS [20] = test: Concentration of compound required to protect 50% of CEM-SS cells against retroviral cytopathic effects of HIV-RF on 6th day at dil 1:200; format: functional, cell-based; details: Homo sapiens
CEM-SS [21] = test: Concentration of compound required to protect 50% of CEM-SS cells against retroviral cytopathic effects of HIV-RF on 6th day at dil 1:400; format: functional, cell-based; details: Homo sapiens
CEM-SS [22] = test: Concentration of compound required to protect 50% of CEM-SS cells against retroviral cytopathic effects of HIV-RF on 6th day at dil 1:50; format: functional, cell-based; details: Homo sapiens
CEM-SS [23] = test: Concentration of compound required to protect 50% of CEM-SS cells against retroviral cytopathic effects of HIV-RF on 9th day at dil 1:200; format: functional, cell-based; details: Homo sapiens
CEM-SS [24] = test: Concentration of compound required to protect 50% of CEM-SS cells against retroviral cytopathic effects of HIV-RF on 9th day at dil 1:400; format: functional, cell-based; details: Homo sapiens
CEM-SS [25] = test: Concentration of compound required to protect 50% of CEM-SS cells against retroviral cytopathic effects of HIV-RF on 9th day at dil 1:50; format: functional, cell-based; details: Homo sapiens
[26] = Compound was evaluated for the relative inhibition of Viral infection in MAGI cells at concentration 100 mM, using assay 1; format: functional, Homo sapiens
[27] = Compound was evaluated for the relative inhibition of Viral infection in MAGI cells at concentration 10 mM, using assay 1; format: functional, Homo sapiens
[28] = Compound was evaluated for the relative inhibition of Viral infection in MAGI cells at concentration 10mM, using assay 2; format: functional, Homo sapiens
[29] = Compound was evaluated for the relative inhibition of Viral infection in MAGI cells at concentration 10 mM, using assay 3; format: functional, Homo sapiens
[30] = Compound was evaluated for the relative inhibition of Viral infection in MAGI cells at concentration 1 mM, using assay 1; format: functional, Homo sapiens
MT4 [31] = test: Concentration of compound required to protect 50% of MT-4 cells against retroviral cytopathic effects of HIV-2 (ROD); format: functional, cell-based; details: Homo sapiens
MT4 [32] = test: Concentration of compound required to reduce MT-4 cell viability by 50%; format: functional, cell-based; details: Homo sapiens
CEM-SS [33] = test: Concentration of compound required to protect 50% of CEM-SS cells against retroviral cytopathic effects of HIV-RF on 9th day at dil 1:100; format: functional, cell-based; details: Homo sapiens
CEM-SS [34] = test: Compound was evaluated for the cytoprotection of CEM-SS cells by XTT cytoprotection assay through the NCI AIDS Screen; format: functional, cell-based; details: Homo sapiens
MT4 [35] = test: Concentration of compound required to protect 50% of MT-4 cells against retroviral cytopathic effects of HIV-1 ([…]); format: functional, cell-based; details: Homo sapiens
[36] = Compound was evaluated for the relative Viral infection in MAGI cells at concentration 100 mM, using assay 2
[37] = Compound was evaluated for the relative inhibition of Viral infection in MAGI cells at concentration 0.1 uM, using assay 3
CEM-SS [38] = test: Compound was evaluated for the effect of Order of Addition on Cytoprotection against HIV1-RF at dilution 333, Pretreat with 100 uM

T1 sequence (Q7ZJM1 whole entry): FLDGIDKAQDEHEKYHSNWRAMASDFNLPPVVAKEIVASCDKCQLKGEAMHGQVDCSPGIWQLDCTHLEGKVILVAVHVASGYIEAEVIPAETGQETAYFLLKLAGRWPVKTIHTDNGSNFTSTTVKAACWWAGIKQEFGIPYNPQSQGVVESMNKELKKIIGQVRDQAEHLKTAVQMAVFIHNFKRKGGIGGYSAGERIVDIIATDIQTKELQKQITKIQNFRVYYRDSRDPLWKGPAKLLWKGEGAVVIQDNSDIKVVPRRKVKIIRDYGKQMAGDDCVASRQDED

SMILES: COC(=O)[C@@H](CNC(=O)/C=C/c1ccc(OC(C)=O)c(OC(C)=O)c1)NC(=O)/C=C/c1ccc(OC(C)=O)c(OC(C)=O)c1
IC50 [1]: 10 µM
IC50 [2]: 10.9 µM

SMILES: COc1ccc(/C=C/C(=O)NC[C@@H](NC(=O)/C=C/c2ccc(OC)c(OC)c2)C(=O)O)cc1OC
IC50 [1]: > 1000 µM
IC50 [2]: > 1000 µM

SMILES: COC(=O)C(COC(=O)/C=C/c1ccc(OC(C)=O)c(OC(C)=O)c1)NC(C)=O (configuration not stated)
IC50 [1]: > 333 µM
IC50 [2]: > 333 µM

SMILES: CC(=O)Oc1ccc(/C=C/C(=O)NCC(NC(=O)/C=C/c2ccc(OC(C)=O)c(OC(C)=O)c2)C(=O)O)cc1OC(C)=O (configuration not stated)
IC50 [1]: 4.1 µM
IC50 [2]: 4.1 µM

SMILES: CC(=O)Oc1ccc(/C=C/C(=O)O[C@H](C(=O)O)[C@H](OC(=O)/C=C/c2ccc(OC(C)=O)c(OC(C)=O)c2)C(=O)O)cc1OC(C)=O
Control (CEM-SS [5]): 141%
Control (CEM-SS [6]): 100%
Control (CEM-SS [7]): 149%
Control (CEM-SS [8]): 120%
Control (CEM-SS [9]): 60%
Control (CEM-SS [10]): 17%
Control (CEM-SS [11]): 38%
Control (CEM-SS [12]): 51%
Control (CEM-SS [13]): 81%
Control (CEM-SS [14]): 39%
Control (CEM-SS [15]): 57%
EC50 (CEM-SS [16]): > 50 µM
EC50 (CEM-SS [17]): > 50 µM
EC50 (CEM-SS [18]): > 50 µM
EC50 (CEM-SS [19]): > 50 µM
EC50 (CEM-SS [20]): 22.6 µM
EC50 (CEM-SS [21]): 19.6 µM
EC50 (CEM-SS [22]): > 50 µM
EC50 (CEM-SS [23]): > 50 µM
EC50 (CEM-SS [24]): 29.4 µM
EC50 (CEM-SS [25]): > 50 µM
relative infection [26]: 6%
relative infection [27]: 88%
relative infection [28]: 76%
relative infection [29]: 55%
relative infection [30]: 83%
EC50 (MT4 [31]): 5.1 µM
IC50 (MT4 [32]): 60 µM
EC50 (CEM-SS [33]): > 50 µM
EC50 (CEM-SS [34]): 21 µM
IC50 (CEM-SS [34]): 23 µM
EC50 (MT4 [35]): 3.9 µM
IC50 [1]: 4.6 µM
IC50 [2]: 33.3 µM
relative infection [36]: 5%
relative infection [37]: 91%
Control (CEM-SS [38]): 163%

SMILES: COC(=O)[C@@H](CNC(=O)/C=C/c1ccc(OC)c(OC)c1)NC(=O)/C=C/c1ccc(OC)c(OC)c1
IC50 [1]: > 1000 µM
IC50 [2]: > 1000 µM

Continued, in another order:

IC50 [1]: 2.8 µM
IC50 [2]: 2.1 µM
SMILES: CC(=O)Oc1ccc(/C=C/C(=O)OCC(OC(=O)/C=C/c2ccc(OC(C)=O)c(OC(C)=O)c2)C(=O)O)cc1OC(C)=O (configuration not stated)

IC50 [1]: 0.4 µM
IC50 [2]: 0.4 µM
SMILES: O=C(/C=C/c1ccc(O)c(O)c1)OCCOC(=O)/C=C/c1ccc(O)c(O)c1
EC50 (CEM-SS [3]): Not reached
IC50 (CEM-SS [4]): 10 µM

IC50 [1]: 3.2 µM
IC50 [2]: 2.5 µM
SMILES: COC(=O)C(COC(=O)/C=C/c1ccc(OC(C)=O)c(OC(C)=O)c1)NC(=O)/C=C/c1ccc(OC(C)=O)c(OC(C)=O)c1 (configuration not stated)

IC50 [1]: 111 µM
IC50 [2]: 333 µM
SMILES: CC(=O)NC(COC(=O)/C=C/c1ccc(O)c(O)c1)C(=O)O (configuration not stated)

IC50 [1]: > 100 µM
IC50 [2]: > 100 µM
SMILES: CC(=O)Oc1ccc(/C=C/C(=O)OCCOC(=O)/C=C/c2ccc(OC(C)=O)c(OC(C)=O)c2)cc1OC(C)=O
IC50 (CEM-SS [34]): 6.7 µM

IC50 [1]: 1.7 µM
IC50 [2]: 4.2 µM
SMILES: O=C(/C=C/c1ccc(O)c(O)c1)OCC(OC(=O)/C=C/c1ccc(O)c(O)c1)C(=O)O (configuration not stated)
